The target in assay [1] is T1, BcGalB (Heyndrickxia coagulans, UniProt G2TH90).
T1 construct: recombinant in E. coli Rosetta(DE3) pLysS, pET28b, C-terminal His-tag, ~75 kDa monomer, hexamer in solution
Put plainly: inhibition of ONP-β-gal hydrolysis. Type of assay: biochemical. The settings on record: 0-100 mM sugar, 5 min preincubation, standard assay 10 mM ONP-β-gal, 100 mM sodium citrate pH 5.0, 60 °C.

The target of assay [2] is T1, BcGalB. Put plainly: release of ortho-nitrophenol at […] nm, non-linear regression. It counts as biochemical. The settings on record: 100 mM sodium citrate pH 5.0, 60 °C.
In assay [3] the target is B. coagulans MA-13 β-galactosidase expressed in E. coli (BcGalB) (Bacillus coagulans MA-13). Put plainly: SEC-MALS; S200 16/60 column with Mini DAWN Treos light scattering and QELS; 1 mg protein at 1 mg/ml; 0.5 ml/min; 100 mM sodium phosphate pH 8.0, 1 mM DTT; data not shown.

For `OC1OC[C@@H](O)[C@@H](O)[C@@H]1O` (stereo partly drawn) [D-arabinose], the “retained activity at the highest concentration” value on BcGalB [1] is given as greater than 66%. With `OC1OC[C@@H](O)[C@H](O)[C@H]1O` (stereo partly drawn) [D-xylose], the “retained activity at the highest concentration” value at BcGalB [1] (highest concentration 100 mM, at least 66% retained) is listed as greater than 66%. `O=[N+]([O-])c1ccccc1O[C@@H]1O[C@H](CO)[C@H](O)[C@H](O)[C@H]1O` [ONP-β-gal]: at BcGalB [2], the Km (usually the substrate concentration at which the rate is half of its maximum) worked out at 723 µM.

“B. coagulans MA-13 β-galactosidase expressed in E. coli (BcGalB) (enzyme)”: in assay [3], the stoichiometry N (commonly a count of units in the complex or per binding partner) was found to be 6.

Source of the values: publication PMC7977261, “Prebiotic properties of Bacillus coagulans MA-13: production of galactoside hydrolyzing enzymes and characterization of the transglycosylation properties of a GH42 β-galactosidase” (Microbial Cell Factories, 2021).
